This note sets out measurements from PubChem BioAssay (NCI).

Some test systems named below: CAKI-1 renal; EKVX NSCLC; HOP-92 NSCLC; MCF7 breast; NCI-H460 lung; RPMI-8226 leukemia; RXF 393 renal; SNB-19 CNS; SNB-78 CNS; ACHN renal; MDA-MB-231 breast; MDA-N.
Assay in all cases: inhibition of tumour cell growth, NCI panel, 48 h

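48-hour exposure; five concentrations; linearly interpolated endpoints. Here, GI50 denotes the concentration required for 50% inhibition of growth. At the TGI there is no net growth.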 Where a SMILES comes first, the peptide text is derived from it. The star is where a group is joined. Cbz = O=C(OCc1ccccc1)*; Bn = c1ccc(C*)cc1

On to `CC(=O)OCC1OC(NC(=O)N(CCCl)N=O)C(OC(C)=O)C(OC(C)=O)C1OC(C)=O` (stereo not drawn), for which the TGI in the assay with CAKI-1 renal, in the assay with EKVX NSCLC, with HOP-92 NSCLC, in the assay with MCF7 breast, in the assay on NCI-H460 lung and in the assay with RPMI-8226 leukemia was above 100 µM each time. Besides, the TGI with RXF 393 renal, in the assay on SNB-19 CNS and in the assay on SNB-78 CNS was above 100 µM each time.

Take `NC(=O)c1ccc([N+](=O)[O-])cc1`: the TGI in the assay on CAKI-1 renal, in the assay with EKVX NSCLC, in the assay on NCI-H460 lung, with RPMI-8226 leukemia, in the assay on RXF 393 renal and in the assay with SNB-19 CNS was above 100 µM in each case. In the assay on SNB-78 CNS, this compound showed a TGI above 100 µM.

With `C1CSCCSCSCCS1`, the TGI in the assay on ACHN renal, in the assay with CAKI-1 renal, with EKVX NSCLC, in the assay on HOP-92 NSCLC, in the assay with MCF7 breast and in the assay with MDA-MB-231 breast was above 100 µM in each case. Also, the TGI with MDA-N, in the assay with NCI-H460 lung, in the assay with RXF 393 renal and in the assay with SNB-19 CNS was above 100 µM each time.

`O=C1c2cccc(O)c2C(=O)c2c(O)cccc21`: the TGI with ACHN renal, with CAKI-1 renal, in the assay with EKVX NSCLC, in the assay on HOP-92 NSCLC, in the assay with NCI-H460 lung and with RPMI-8226 leukemia was above 100 µM in each case. Besides, the TGI in the assay on RXF 393 renal, with SNB-19 CNS and in the assay with SNB-78 CNS was above 100 µM in each case.

As to `COc1ccc(-c2oc3cc(OC(C)=O)cc(OC(C)=O)c3c(=O)c2OC)cc1`, the TGI with ACHN renal amounted to 45.8 µM; in the assay with CAKI-1 renal, 34.9 µM; with EKVX NSCLC, 47.8 µM; in the assay with MCF7 breast it was 48.4 µM; in the assay with MDA-MB-231 breast it was 63.7 µM; in the assay with MDA-N it was 28.3 µM. Besides, the TGI in the assay on NCI-H460 lung came to 37.5 µM; with RPMI-8226 leukemia, 38.3 µM; in the assay on SNB-19 CNS it was 79.4 µM.

`C=CCOCCC(CC=C)C(=O)CC(=O)OC` (stereo not drawn): the TGI in the assay with ACHN renal, in the assay on EKVX NSCLC, in the assay with HOP-92 NSCLC, with NCI-H460 lung, in the assay on RPMI-8226 leukemia and in the assay with RXF 393 renal was above 100 µM each time. In the assay with SNB-19 CNS, this compound registered a TGI above 100 µM.

`NC(CCP(=O)(O)O)C(=O)O` (stereo not drawn): the TGI in the assay on ACHN renal, in the assay with CAKI-1 renal, with EKVX NSCLC, in the assay on HOP-92 NSCLC, in the assay on MDA-MB-231 breast and in the assay on MDA-N was above 100 µM in each case. For the same compound, the TGI in the assay on NCI-H460 lung, in the assay with RPMI-8226 leukemia, in the assay on RXF 393 renal and with SNB-19 CNS was above 100 µM throughout.

Consider `CC1C[C@]2(C[C@@H](C)C(=O)O2)OC2CC3(C)C4CCC5C(C)(C)OC(=O)CC[C@@]56C[C@@]46CC[C@]3(C)C12` (stereo partly drawn), for which the TGI in the assay with ACHN renal, in the assay with CAKI-1 renal, in the assay on EKVX NSCLC, with HOP-92 NSCLC, in the assay with NCI-H460 lung and with RPMI-8226 leukemia was above 100 µM each time. Besides, the TGI with RXF 393 renal, with SNB-19 CNS and in the assay with SNB-78 CNS was above 100 µM each time.

On to `O=C(Nc1ccc(Cl)cc1)c1cc([N+](=O)[O-])ccc1O`, for which the TGI was above 100 µM with ACHN renal; 24.4 µM with CAKI-1 renal; 31.3 µM with EKVX NSCLC; above 79.8 µM in the assay with NCI-H460 lung; 10.2 µM with RPMI-8226 leukemia; 6.64 µM with RXF 393 renal. This compound also registered a TGI in the assay on SNB-19 CNS above 49.2 µM.

Consider `COC(=O)C(Cc1ccc(O)cc1)NC(=O)C(COCc1ccccc1)NC(=O)OCc1ccccc1` (stereo not drawn) (Cbz-Ser(Bn)-Tyr-OMe; configuration not given here), for which the TGI in the assay on ACHN renal stood at 31.2 µM; in the assay on CAKI-1 renal it was 36.4 µM; in the assay with EKVX NSCLC it was 43.8 µM; with HOP-92 NSCLC, 60.8 µM; in the assay on MCF7 breast it was 36.6 µM; in the assay on MDA-MB-231 breast, 33.1 µM. The TGI in the assay on MDA-N was 31.4 µM; in the assay on NCI-H460 lung, 14.3 µM; in the assay on RPMI-8226 leukemia, above 100 µM; in the assay with RXF 393 renal it was 33.9 µM; with SNB-19 CNS, 31.2 µM.

As to `c1ccc(-c2n(Cc3ccc4ccccc4c3)c3ccccc3[n+]2Cc2ccc3ccccc3c2)cc1`, the GI50 is 0.975 µM with ACHN renal, 0.117 µM in the assay on HOP-92 NSCLC, 0.289 µM with MDA-MB-231 breast and 0.208 µM with RPMI-8226 leukemia. Also, the TGI with ACHN renal is 2.36 µM; in the assay with HOP-92 NSCLC, 0.508 µM; in the assay with MDA-MB-231 breast, 1.3 µM; in the assay with RPMI-8226 leukemia it was 1.47 µM.

Take `N=C(N)c1ccc(-c2ccc(-c3ccc4ccccc4c3)s2)s1`: the GI50 in the assay with ACHN renal was 2.53 µM; with CAKI-1 renal, 3.11 µM; with EKVX NSCLC it was 2.46 µM; with MDA-MB-231 breast it was 1.85 µM; in the assay with NCI-H460 lung, 1.95 µM; in the assay on RPMI-8226 leukemia, 2.3 µM. Also, the TGI in the assay with ACHN renal worked out at 6.66 µM; in the assay on CAKI-1 renal it was 11.6 µM; with EKVX NSCLC, 7.44 µM; with MDA-MB-231 breast, 3.73 µM; in the assay on NCI-H460 lung it was 3.7 µM; in the assay with RPMI-8226 leukemia, 5.02 µM.
